Reference: paper PMC6627331, “Identification of Small Molecule Inhibitors of Staphylococcus aureus RnpA” (Antibiotics, 2019)
Converted amounts (≈) assume the structure as drawn. Like-named read-outs stand apart in the source and are kept apart here.

Assays:
[1] = molecular target: T1, S. aureus RNase P (RnpA + rnpB) (Staphylococcus aureus, UniProt P0A0H5); assay: RnpA-dependent RNase P in vitro ptRNA^Tyr processing assay; type: biochemical; conditions: in vitro ptRNA^Tyr processing; read-out: Processing IC50
T1 construct: hexahistidine (His6) (N); made in house; host or cells: E. coli BL21 (DE3), plasmid pEXP5-nt
T1 sequence (P0A0H5 1-117): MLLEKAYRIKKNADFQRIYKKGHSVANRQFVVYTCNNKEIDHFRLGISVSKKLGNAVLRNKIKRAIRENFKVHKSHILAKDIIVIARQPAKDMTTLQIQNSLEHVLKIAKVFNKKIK
Method: S. aureus RNase P activity assays were performed according to conditions described previously. Briefly, ptRNA^Tyr and rnpB RNA species were first denatured by heating to 95 °C for 5 min then slow cooled to room temperature. RNase P was reconstituted by mixing an equal molar ratio of rnpB and RnpA for 15 min at 37 °C. Precursor tRNA processing inhibition reactions were performed by mixing 1.25 pmol of reconstituted RNase P (RnpA + rnpB) with an equal volume of 2× low salt buffer (50 mM Tris-HCl pH 8.0, 5 mM MgCl2) in the presence of DMSO (negative control) or the indicated compound (≤500 µM) and incubated for 5 min at 37 °C. 5 pmol ptRNA^Tyr was added and the mixture was incubated at 37 °C 15 min. Reactions were stopped by adding 2× RNA loading dye and heating at 65 °C for 10 min. Each sample was electrophoresed in a 7 M urea/8% polyacrylamide gel then stained with ethidium bromide. The Biorad EZ Gel Doc imaging system was used to visualize the RNA and relative abundance of the mature tRNA^Tyr band (% processing) in the negative control or in samples containing the indicated compounds and analyzed using Biorad Image Lab densitometry software. The inhibitory activity of the indicated compounds were calculated as a % inhibition using the following equation: […].
To assess IC50, % RNase P processing inhibition was plotted against compound concentration and a linear best fit equation was generated to calculate the IC50.

S. aureus UAMS-1 [2] = assay: Minimum inhibitory concentration (MIC) testing; type: cell-based, Staphylococcus aureus
Method: Minimum inhibitory concentration (MIC) testing was performed using to Clinical & Laboratory Standards Institute (CLSI) guidelines. Accordingly, individual wells of a 96-well microtiter plate were inoculated with 10^4 colony forming units (CFU) of S. aureus UAMS-1 containing two-fold increasing concentrations (0 to 256 μg·mL^−1) of the indicated antibiotic or putative RnpA inhibitor compound, and incubated at 37 °C for 16 h in MHB. The MIC was defined as the lowest concentration of compound in which there was no visible bacterial growth in the well.

[3] = test system: norA mRNA in S. aureus UAMS-1 cells; assay: Cellular norA mRNA turnover (qRT-PCR after rifampin arrest); type: cell-based, Staphylococcus aureus; conditions: 0.5× MIC for 30 min; 5 min post-transcriptional arrest; mock 99%
Method: S. aureus mRNA half-life determinations were performed as previously described. […] Rifampin (Sigma-Aldrich) was added to the culture at a final concentration of 200 μg·mL^−1 to inhibit de novo transcript synthesis. Half of the culture was immediately removed and combined with an equal volume of ice cold acetone:ethanol (1:1 v/v). The remaining culture was returned to the shaking 37 °C incubator for an additional 5 min and then subsequently combined with an equal volume of ice cold acetone:ethanol (1:1 v/v) and stored at −80 °C until processing, as described below.
For total bacterial RNA isolation, cell suspensions were thawed on ice, centrifuged at 3000 rpm for 10 min at 4 °C, the resulting cell pellets were resuspended in ice-cold TE buffer (10 mM Tris-HCl, pH 8.0, 1 mM EDTA), and transferred into a FastPrep bead beater tube containing 0.1 mm silica spheres (MP Biomedicals; Santa Ana, CA, USA). Mixtures were homogenized at 5 m·s^−1 for 20 s, rested on ice for 5 min, and then homogenized again at 4.5 m·s^−1 in a FastPrep-24 instrument. Cellular debris were collected by centrifugation at 13,000 rpm for 15 min at 4 °C, whereas bacterial RNA was isolated from the supernatant using Qiagen RNeasy Mini Kits and miRNeasy Mini Kits were used to isolate total bacterial RNA, following the manufacturer’s instructions. RNA quantity and quality were measured using a NanoDrop 2000 spectrophotometer (ThermoFisher Scientific). For qRT-PCR, 1 μg of total bacterial RNA was treated with 3 units of DNase I (Ambion; Carlsbad, CA, USA) for 1 h at 37 °C to remove any DNA contaminants. RNA cleanup was performed using the Qiagen RNeasy Mini Kit. Subsequently, the BioRad iScript cDNA Synthesis Kit (Hercules, CA, USA) was used to convert 200 ng of RNA into cDNA, which was amplified using the BioRad iQ SYBR Green Supermix per the manufacturer’s instructions and fluorescence was read on the Biorad CFX 96 Connect machine. Transcript levels were compared to the internal control 16S rRNA (ΔΔCt method), and plotted as a fold change compared to control. The following primer pairs were used in this study for qRT-PCR: norA forward—[…] and norA reverse-[…] CTAAG; -15 ptRNA^Tyr forward-[…] and tRNA^Tyr reverse-TGGTG […]; 16S rRNA forward-[…] and 16S rRNA reverse-[…].

S. aureus UAMS-1 [4] = assay: Fractional inhibitory concentration (FIC) testing; type: cell-based, Staphylococcus aureus; conditions: checkerboard, 16 h
Method: Fractional inhibitory concentration (FIC) testing was performed to determine the combined effects of the indicated antibiotic and the putative RnpA inhibitor following the procedures of Odds and colleagues. To do so, individual wells of a 96-well microtiter plate were inoculated with 10^4 colony forming units (CFU) of S. aureus UAMS-1 in MHB. Each row of the plate contained two-fold increasing concentrations of the indicated antibiotic (0, 0.03, 0.06, 0.125, 0.25, 0.5, 1, 2, or 4× MIC), whereas each column contained increasing concentrations of the putative RnpA inhibitor compound (0, 0.03, 0.06, 0.125, 0.25, 0.5, 1, 2, or 4× MIC). Plates were incubated at 37 °C for 16 h and growth was determined by the unaided eye. The FIC was defined using the following formula: FIC = (MIC of Drug A in Combination/MIC of Drug A Alone) + (MIC of Drug B in Combination/MIC of Drug B Alone). A synergistic interaction was defined as an FIC value ≤ 0.5, an additive interaction as 0.5 < FIC < 1, no interaction as 1 ≤ FIC < 4, and an antagonistic interaction as FIC ≥ 4.

CC1CCCCN1C(=O)Nc1cc(Cl)cc(Cl)c1 (stereo not drawn) [JC2]
IC50 [1]: 200 µM
MIC (S. aureus UAMS-1 [2]; S. aureus UAMS-1, 16 h in MHB, listed as 9049625): 1 µg/mL (≈ 3.48 µM)
MIC (S. aureus UAMS-1 [2]; Staphylococcus aureus, UAMS1, 16 h, Table S1, mupirocin synergy screening initial hits, read-out: MIC): 1 µg/mL
MIC (S. aureus UAMS-1 [2]; Staphylococcus aureus, UAMS1, SAR figures, S. aureus UAMS-1, read-out: MIC): 0.5 µg/mL (≈ 1.74 µM)
norA mRNA degradation [3]: 27%
FIC in combination with ampicillin (S. aureus UAMS-1 [4]): 2
FIC in combination with erythromycin (S. aureus UAMS-1 [4]): 2
FIC in combination with mupirocin (S. aureus UAMS-1 [4]): 0.875
FIC in combination with trimethoprim (S. aureus UAMS-1 [4]): 2
